# Assay results published in patent US20240228480A1, “PROCESSES FOR PREPARING PYRROLOPYRIDINE-ANILINE COMPOUNDS” (NFLECTION THERAPEUTICS, INC., priority 2021, published 2024).
# “Also recorded” adds a separate entry of the source.
# Experiments:
# [1] = clinical trials; cited from earlier work
# [2] = Stability of Compound (II) suspended in various solvents (slurry experiment, HPLC area %); assay type: physicochemical
# Description: Therefore, the first course of action was to find a suitable solvent in which to suspend compound (II) for the addition to the first mixture of step 6a).
compound,measurement,setting,value
O=C(NOC[C@H](O)CO)c1ccc(F)c(F)c1Nc1ccc(I)cc1F [PD0325901],Side effects exhibited,[1],"neurological side effects associated with ataxia, confusion, and syncope; also recorded: one or more neurological side effects associated with ataxia, confusion, and syncope"
Cn1c(Nc2ccc(I)cc2F)c(C(=O)Cl)c2cccnc21 [Compound (II)],Area % t = 10 min,[2]; solvent 2-Me-THF,88.0 Area %
same,Area % t = 2 h,[2]; solvent 2-Me-THF,77.8 Area %
same,Area % t = 17 h,[2]; solvent 2-Me-THF,75.3 Area %
same,Area % t = 10 min,[2]; solvent DCM,91.4 Area %
same,Area % t = 2 h,[2]; solvent DCM,90.5 Area %
same,Area % t = 17 h,[2]; solvent DCM,85.3 Area %
same,Area % t = 10 min,[2]; solvent Heptane,*68.6 Area %
same,Area % t = 2 h,[2]; solvent Heptane,88.4 Area %
same,Area % t = 17 h,[2]; solvent Heptane,91.8 Area %
same,Area % t = 10 min,[2]; solvent IPAc,*81.6 Area %
same,Area % t = 2 h,[2]; solvent IPAc,93.3 Area %
same,Area % t = 17 h,[2]; solvent IPAc,90.4 Area %
same,Area % t = 10 min,[2]; solvent MTBE,92.9 Area %
same,Area % t = 2 h,[2]; solvent MTBE,*81.6 Area %
same,Area % t = 17 h,[2]; solvent MTBE,87.2 Area %
same,Area % t = 10 min,[2]; solvent MeCN,87.4 Area %
same,Area % t = 2 h,[2]; solvent MeCN,79.2 Area %
same,Area % t = 17 h,[2]; solvent MeCN,65.5 Area %
same,Area % t = 10 min,[2]; solvent THF,90.0 Area %
same,Area % t = 2 h,[2]; solvent THF,83.7 Area %
same,Area % t = 17 h,[2]; solvent THF,63.7 Area %
same,Decomposition when suspended in THF,"[2]; suspended in THF for a period of time (e.g., >10 h)",Decomposition of compound (II) was found to occur
